Measurements from the NIST ThermoML archive (doi:10.1016/j.jct.2010.12.012).
Several values for one entry are separate records, joined by “and”; a condition that tells them apart may be missing. Equal entries are not always repeated. Numbers after ± are expanded uncertainties.

Legend:
[1] = refractive index (Na D-line) (dimensionless); conditions: 298.15 K; 101.33 kPa; Liquid; Standard Abbe refractometry
[2] = 298.15 K; 101.33 kPa; Liquid; Vibrating tube method
[3] = xn = mol fraction of the nth substance listed; conditions: 298.15 K, 101 kPa, Liquid, Vibrating tube method

refractive index [1] | mass density [2] | Compound | further results
1.4236 ± 0.00037 | 773.8 ± 0.24 kg/m3 | C1CCCCC1 [cyclohexane] | 
1.44378 ± 0.00037 | 805.69 ± 0.24 kg/m3 | C1=CCCCC1 [cyclohexene] | 
1.45598 ± 0.00037 | 831.47 ± 0.24 kg/m3 | C1CCCCCCC1 [cyclooctane] | 
1.42062 ± 0.00037 | 765.02 ± 0.24 kg/m3 | CC1CCCCC1 [methylcyclohexane] | 

More lines, now with the values behind:

Compound | refractive index [1] | mass density [2] | further results
CCCCn1cc[n+](C)c1.COS(=O)(=O)[O-] [1-butyl-3-methylimidazolium methyl sulfate] | 1.47792 ± 0.00037 | 1212.59 ± 0.41 kg/m3 | 
CCCCn1cc[n+](C)c1.COS(=O)(=O)[O-] [1-butyl-3-methylimidazolium methyl sulfate] + C1CCCCC1 |  |  | mass density ([3]; x2 = 0.039): 1204.53 ± 1.3 kg/m3
CCCCn1cc[n+](C)c1.COS(=O)(=O)[O-] [1-butyl-3-methylimidazolium methyl sulfate] + CC1CCCCC1 |  |  | mass density ([3]; x2 = 0.028): 1207.3 ± 1.3 kg/m3
CCCCn1cc[n+](C)c1.COS(=O)(=O)[O-] [1-butyl-3-methylimidazolium methyl sulfate] + Cc1ccccc1 |  |  | mass density ([3]; x2 = 0.328): 1151 ± 1.2 kg/m3 and 1153.43 ± 1.2 kg/m3
C1=CCCCC1 [cyclohexene] + CCCCn1cc[n+](C)c1.COS(=O)(=O)[O-] |  |  | mass density ([3]; x1 = 0.071): 1201.85 ± 1.9 kg/m3
C1CCCCCCC1 [cyclooctane] + CCCCn1cc[n+](C)c1.COS(=O)(=O)[O-] |  |  | mass density ([3]; x1 = 0.02): 1207.63 ± 1.3 kg/m3
Cc1ccccc1 [toluene] | 1.49399 ± 0.00031 | 862.17 ± 0.1 kg/m3 | 
